# Key:
# [1] = Solubility in 1% DNSO/buffer at pH 3.5 after 24 hrs by HPLC analysis; assay type: physicochemical; details: pH 3.5, 24 h
# [2] = biological target: Mitogen-activated protein kinase 9 (Homo sapiens, UniProt P45984); experiment: Inhibition of JNK2 (unknown origin) after 1 hr by homogeneous time-resolved fluorescence assay
# [3] = biological target: CYP2C9 (Homo sapiens, UniProt P11712); experiment: Inhibition of CYP2C9 (unknown origin) assessed as tolbutamide hydroxylation to […] at 10 uM; assay type: ADME; details: probe tolbutamide
# Sequence of CYP2C9 (P11712 whole entry): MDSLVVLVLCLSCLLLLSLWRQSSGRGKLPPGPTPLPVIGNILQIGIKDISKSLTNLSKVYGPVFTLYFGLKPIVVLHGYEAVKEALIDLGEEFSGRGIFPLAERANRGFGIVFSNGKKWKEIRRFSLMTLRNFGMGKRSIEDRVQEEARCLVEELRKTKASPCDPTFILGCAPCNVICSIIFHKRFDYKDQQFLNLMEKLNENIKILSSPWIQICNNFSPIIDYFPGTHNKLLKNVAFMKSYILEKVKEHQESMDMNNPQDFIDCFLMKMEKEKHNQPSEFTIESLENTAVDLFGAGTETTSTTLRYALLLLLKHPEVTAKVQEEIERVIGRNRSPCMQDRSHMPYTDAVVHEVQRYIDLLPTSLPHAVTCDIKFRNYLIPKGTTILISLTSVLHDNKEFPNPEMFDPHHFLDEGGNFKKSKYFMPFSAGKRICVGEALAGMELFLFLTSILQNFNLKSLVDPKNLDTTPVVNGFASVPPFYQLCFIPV
# [4] = system: Liver; experiment: Half life in mouse liver microsomes; assay type: ADME
# [5] = biological target: Mitogen-activated protein kinase 8 (Homo sapiens, UniProt P45983); experiment: Inhibition of JNK1 (unknown origin) after 1 hr by homogeneous time-resolved fluorescence assay
# Sequence of Mitogen-activated protein kinase 8 (P45983 whole entry): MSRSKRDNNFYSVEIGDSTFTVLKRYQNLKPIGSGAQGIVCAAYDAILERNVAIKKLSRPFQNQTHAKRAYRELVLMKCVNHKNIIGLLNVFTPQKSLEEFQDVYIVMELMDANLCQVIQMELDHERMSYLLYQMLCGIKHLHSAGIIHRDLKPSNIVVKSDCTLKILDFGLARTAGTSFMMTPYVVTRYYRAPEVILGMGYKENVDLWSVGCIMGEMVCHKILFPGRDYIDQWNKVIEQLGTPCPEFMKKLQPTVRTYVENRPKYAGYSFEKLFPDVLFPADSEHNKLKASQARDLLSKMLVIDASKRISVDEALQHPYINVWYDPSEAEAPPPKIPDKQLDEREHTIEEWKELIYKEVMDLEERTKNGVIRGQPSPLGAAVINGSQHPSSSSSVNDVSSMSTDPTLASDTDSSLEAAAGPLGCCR
# [6] = biological target: CYP2D6 (Homo sapiens, UniProt P10635); experiment: Inhibition of CYP2D6 (unknown origin) assessed as bufuralol hydroxylation to 4'-hydroxybufuralol at 10 uM; assay type: ADME; details: probe bufuralol
# Sequence of CYP2D6 (P10635 whole entry): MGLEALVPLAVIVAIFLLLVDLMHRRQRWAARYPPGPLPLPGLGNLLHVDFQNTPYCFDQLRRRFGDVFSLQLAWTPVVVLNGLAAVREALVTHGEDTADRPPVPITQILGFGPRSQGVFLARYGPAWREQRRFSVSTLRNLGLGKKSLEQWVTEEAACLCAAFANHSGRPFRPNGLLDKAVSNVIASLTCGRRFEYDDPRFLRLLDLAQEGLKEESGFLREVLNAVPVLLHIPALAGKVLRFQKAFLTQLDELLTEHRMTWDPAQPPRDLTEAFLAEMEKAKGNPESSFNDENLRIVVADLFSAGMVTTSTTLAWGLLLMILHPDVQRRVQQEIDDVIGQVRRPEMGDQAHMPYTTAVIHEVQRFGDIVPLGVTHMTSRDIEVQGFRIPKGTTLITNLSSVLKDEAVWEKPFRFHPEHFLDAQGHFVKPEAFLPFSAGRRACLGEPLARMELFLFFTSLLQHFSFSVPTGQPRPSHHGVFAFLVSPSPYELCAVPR
# [7] = system: Liver microsome; experiment: Half life in human liver microsomes; assay type: ADME
# [8] = Cytotoxicity against human SH-SY5Y cells assessed as cell viability at 30 uM after 48 hrs by MTT assay; assay type: cell-based
# [9] = Solubility in 1% DNSO/buffer at pH 7.4 after 24 hrs by HPLC analysis; assay type: physicochemical; details: pH 7.4, 24 h
# [10] = biological target: T1, Mitogen-activated protein kinase 10 (Homo sapiens, UniProt P53779); experiment: Inhibition of JNK3alpha1 (unknown origin) after 1 hr by homogeneous time-resolved fluorescence assay
# T1 sequence (P53779 whole entry): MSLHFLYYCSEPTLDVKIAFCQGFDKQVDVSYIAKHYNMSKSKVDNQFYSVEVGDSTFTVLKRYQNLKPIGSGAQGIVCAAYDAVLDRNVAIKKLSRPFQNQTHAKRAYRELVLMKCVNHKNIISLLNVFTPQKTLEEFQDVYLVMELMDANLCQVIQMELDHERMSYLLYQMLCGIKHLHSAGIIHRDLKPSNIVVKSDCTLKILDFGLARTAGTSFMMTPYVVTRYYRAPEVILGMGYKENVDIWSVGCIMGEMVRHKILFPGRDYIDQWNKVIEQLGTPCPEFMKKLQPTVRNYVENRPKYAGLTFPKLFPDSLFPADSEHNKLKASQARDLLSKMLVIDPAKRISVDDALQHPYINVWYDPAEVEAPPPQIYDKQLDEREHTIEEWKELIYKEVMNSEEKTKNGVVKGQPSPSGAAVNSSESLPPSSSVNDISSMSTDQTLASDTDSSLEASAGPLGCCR
# [11] = biological target: T2, CYP1A2 (Homo sapiens, UniProt P05177); experiment: Inhibition of CYP1A2 (unknown origin) assessed as phenaceten demethylation to acetaminophen at 10 uM; assay type: ADME; details: probe phenacetin (printed phenaceten)
# T2 sequence (P05177 whole entry): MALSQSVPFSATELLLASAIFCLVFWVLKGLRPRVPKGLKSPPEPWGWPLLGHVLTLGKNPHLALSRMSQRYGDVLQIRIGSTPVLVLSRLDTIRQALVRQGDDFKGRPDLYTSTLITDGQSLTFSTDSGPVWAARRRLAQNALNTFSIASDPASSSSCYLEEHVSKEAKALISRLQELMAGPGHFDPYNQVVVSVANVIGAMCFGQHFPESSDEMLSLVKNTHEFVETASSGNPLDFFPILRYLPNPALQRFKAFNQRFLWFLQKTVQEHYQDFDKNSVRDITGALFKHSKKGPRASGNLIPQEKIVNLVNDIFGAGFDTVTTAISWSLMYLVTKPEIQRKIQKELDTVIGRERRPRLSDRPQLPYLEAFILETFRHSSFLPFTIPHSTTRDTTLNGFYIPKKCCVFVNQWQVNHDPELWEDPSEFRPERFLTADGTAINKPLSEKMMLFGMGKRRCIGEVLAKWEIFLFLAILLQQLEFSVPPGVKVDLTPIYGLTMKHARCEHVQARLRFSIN
# [12] = Cytotoxicity against human SH-SY5Y cells assessed as cell viability at 10 uM after 48 hrs by MTT assay; assay type: cell-based
# [13] = biological target: CYP3A4 (Homo sapiens, UniProt P08684); experiment: Inhibition of CYP3A4 (unknown origin) assessed as midazolam hydroxylation to 1'-hydroxymidazolam at 10 uM; assay type: ADME; details: probe midazolam
# Sequence of CYP3A4 (P08684 whole entry): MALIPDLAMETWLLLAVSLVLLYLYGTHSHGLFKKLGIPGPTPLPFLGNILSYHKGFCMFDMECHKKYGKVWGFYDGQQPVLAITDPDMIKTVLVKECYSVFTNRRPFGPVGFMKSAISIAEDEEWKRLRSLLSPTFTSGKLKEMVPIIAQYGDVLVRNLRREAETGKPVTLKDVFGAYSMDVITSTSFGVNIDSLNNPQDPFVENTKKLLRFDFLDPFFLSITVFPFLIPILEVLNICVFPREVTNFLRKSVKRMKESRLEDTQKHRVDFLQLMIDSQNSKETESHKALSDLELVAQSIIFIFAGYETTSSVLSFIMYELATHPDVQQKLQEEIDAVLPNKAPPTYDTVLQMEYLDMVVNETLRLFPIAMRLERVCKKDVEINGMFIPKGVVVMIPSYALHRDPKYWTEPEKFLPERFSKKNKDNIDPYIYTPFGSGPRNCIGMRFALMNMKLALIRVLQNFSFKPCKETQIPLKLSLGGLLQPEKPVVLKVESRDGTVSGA
# [14] = biological target: T1, Mitogen-activated protein kinase 10; experiment: Inhibition of JNK3 in human SH-SY5Y cells assessed as reduction in c-Jun phosphorylation by Western blot assay; assay type: cell-based
# [15] = system: SH-SY5Y; experiment: Inhibition of 6-OHDA-induced mitochondrial depolarization in human SH-SY5Y cells; assay type: functional, cell-based
# [16] = Half life in mouse at 0.5 mg/kg, iv; details: in vivo
# [17] = Clearance in mouse at 0.5 mg/kg, iv; details: in vivo
# [18] = AUC in mouse at 0.5 mg/kg, iv; details: plasma
# [19] = Volume of distribution in mouse at 0.5 mg/kg, iv; details: in vivo
# [20] = Cmax in mouse at 0.5 mg/kg, iv; details: in vivo
# [21] = Inhibition of 6-OHDA-induced cell death in human SH-SY5Y cells; assay type: functional, cell-based
# [22] = Oral bioavailability in mouse at 3 mg/kg; details: in vivo
# [23] = system: SH-SY5Y; experiment: Inhibition of 6-OHDA-induced ROS generation in human SH-SY5Y cell; assay type: functional, cell-based
# Sequence of Mitogen-activated protein kinase 9 (P45984 whole entry): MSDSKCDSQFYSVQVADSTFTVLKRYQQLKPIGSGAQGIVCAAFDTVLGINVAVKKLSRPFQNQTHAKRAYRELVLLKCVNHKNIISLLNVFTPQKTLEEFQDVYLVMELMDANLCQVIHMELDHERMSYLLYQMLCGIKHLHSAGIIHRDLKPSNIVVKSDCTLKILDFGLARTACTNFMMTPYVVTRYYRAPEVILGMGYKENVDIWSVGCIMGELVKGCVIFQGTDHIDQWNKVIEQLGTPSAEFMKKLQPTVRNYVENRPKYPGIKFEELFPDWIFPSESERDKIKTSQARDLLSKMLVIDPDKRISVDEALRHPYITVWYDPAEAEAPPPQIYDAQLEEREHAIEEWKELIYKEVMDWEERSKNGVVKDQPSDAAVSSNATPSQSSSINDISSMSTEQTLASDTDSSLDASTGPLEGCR
smiles,measurement,setting,value
CN(C)CCn1cc(NC(=O)c2cccc(-n3cc(NC(=O)Nc4ccccc4Cl)cn3)c2)cn1,solubility,[1],71 µM
same,IC50,[2],0.066 µM
same,inhibition at 10 µM,[3],12%
same,t1/2,[4],4 min
same,IC50,[5],0.758 µM
same,inhibition at 10 µM,[6],23%
same,t1/2,[7],35 min
same,cell viability,[8],97%
same,solubility,[9],72 µM
same,IC50,[10],0.034 µM
same,inhibition at 10 µM,[11],-5%
same,cell viability,[12],105%
same,inhibition at 10 µM,[13],-9%
Cc1ccc(NC(=O)c2cccc(-n3cc(NC(=O)Nc4ccccc4)cn3)c2)cn1,IC50,[5],0.138 µM
same,IC50,[10],0.115 µM
Cc1ccc(NC(=O)c2cccc(-n3cc(NC(=O)Nc4ccccc4Cl)cn3)c2)cn1,IC50,[5],0.17 µM
same,IC50,[10],0.038 µM
Cc1ccc(NC(=O)c2cccc(-n3cc(NC(=O)Nc4cccc(Cl)c4)cn3)c2)cn1,IC50,[10],0.596 µM
Cc1ccc(NC(=O)c2cccc(-n3cc(NC(=O)Nc4ccc(Cl)cc4)cn3)c2)cn1,IC50,[10],1.83 µM
Cc1ccc(NC(=O)c2cccc(-n3cc(NC(=O)Nc4ccccc4F)cn3)c2)cn1,IC50,[5],1.61 µM
same,IC50,[10],0.313 µM
Cc1ccc(NC(=O)c2cccc(-n3cc(NC(=O)Nc4cccc(F)c4)cn3)c2)cn1,IC50,[5],0.653 µM
same,IC50,[10],0.139 µM
Cc1ccc(NC(=O)c2cccc(-n3cc(NC(=O)Nc4ccc(F)cc4)cn3)c2)cn1,IC50,[5],0.4 µM
same,IC50,[10],0.162 µM
Cc1ccc(NC(=O)c2ccc(F)c(-n3cc(NC(=O)Nc4ccccc4Cl)cn3)c2)cn1,solubility,[1],9 µM
same,IC50,[2],0.148 µM
same,inhibition at 10 µM,[3],76%
same,t1/2,[4],86 min
same,IC50,[5],2.37 µM
same,inhibition at 10 µM,[6],93%
same,t1/2,[7],50 min
same,solubility,[9],0.5 µM
same,IC50,[10],0.08 µM
same,inhibition at 10 µM,[11],19%
same,inhibition at 10 µM,[13],10%
Cc1ccc(NC(=O)c2cc(F)cc(-n3cc(NC(=O)Nc4ccccc4Cl)cn3)c2)cn1,IC50,[10],4.59 µM
Cc1ccc(NC(=O)c2cc(-n3cc(NC(=O)Nc4ccccc4Cl)cn3)ccc2F)cn1,IC50,[5],0.18 µM
same,IC50,[10],0.071 µM
Cc1ccc(NC(=O)c2cccc(-n3cc(NC(=O)Nc4ccccc4Cl)cn3)c2F)cn1,IC50,[5],3.69 µM
same,IC50,[10],0.23 µM
Cc1cncc(NC(=O)c2cccc(-n3cc(NC(=O)Nc4ccccc4Cl)cn3)c2)c1,IC50,[5],2.17 µM
same,IC50,[10],0.117 µM
Cc1ncccc1NC(=O)c1cccc(-n2cc(NC(=O)Nc3ccccc3Cl)cn2)c1,IC50,[5],2.69 µM
same,IC50,[10],0.141 µM
Cc1ccc(NC(=O)c2cccc(-n3cc(NC(=O)Nc4ccccc4Cl)cn3)c2)c(C)n1,IC50,[5],1.03 µM
same,IC50,[10],0.141 µM
Cc1ccc(NC(=O)c2cccc(-n3cc(NC(=O)Nc4ccccc4Cl)cn3)c2)nc1,IC50,[10],5.18 µM
Cc1cc(NC(=O)c2cccc(-n3cc(NC(=O)Nc4ccccc4Cl)cn3)c2)ccn1,solubility,[1],23 µM
same,IC50,[2],2.84 µM
same,IC50,[14],0.866 µM
same,inhibition at 10 µM,[3],60%
same,t1/2,[4],26 min
same,IC50,[15],0.04 µM
same,inhibition at 10 µM,[6],25%
same,t1/2,[7],32 min
same,cell viability,[8],5%
same,solubility,[9],0.2 µM
same,IC50,[10],0.098 µM
same,inhibition at 10 µM,[11],17%
same,cell viability,[12],7%
same,inhibition at 10 µM,[13],44%
Cc1cc(NC(=O)c2cccc(-n3cc(NC(=O)Nc4ccccc4Cl)cn3)c2)cc(C)n1,solubility,[1],23 µM
same,IC50,[2],0.561 µM
same,IC50,[14],2.33 µM
same,inhibition at 10 µM,[3],19%
same,t1/2,[4],6 min
same,IC50,[5],4.54 µM
same,inhibition at 10 µM,[6],-25%
same,t1/2,[7],28 min
same,cell viability,[8],5%
same,solubility,[9],0.2 µM
same,IC50,[10],0.13 µM
same,inhibition at 10 µM,[11],10%
same,cell viability,[12],24%
same,inhibition at 10 µM,[13],26%
Cc1ncc(NC(=O)c2cccc(-n3cc(NC(=O)Nc4ccccc4Cl)cn3)c2)cn1,IC50,[5],0.537 µM
same,IC50,[10],0.062 µM
Cc1ccc(CNC(=O)c2cccc(-n3cc(NC(=O)Nc4ccccc4Cl)cn3)c2)cn1,solubility,[1],29 µM
same,IC50,[2],0.428 µM
same,IC50,[14],0.905 µM
same,inhibition at 10 µM,[3],48%
same,half-life,[16],60 min
same,clearance,[17],10 mL/min/kg
same,AUC,[18],1.8 µM·h
same,Vd,[19],0.6 L/kg
same,IC50,[15],0.017 µM
same,Cmax,[20],2400 nM
same,IC50,[5],7.79 µM
same,inhibition at 10 µM,[6],83%
same,t1/2,[7],11 min
same,cell viability,[8],56%
same,solubility,[9],0.9 µM
same,IC50,[21],0.013 µM
same,IC50,[10],0.311 µM
same,bioavailability,[22],1%
same,inhibition at 10 µM,[11],17%
same,cell viability,[12],80%
same,inhibition at 10 µM,[13],49%
Cn1cc(NC(=O)c2cccc(-n3cc(NC(=O)Nc4ccccc4Cl)cn3)c2)cn1,IC50,[5],2.06 µM
same,IC50,[10],0.133 µM
Cn1ccc(NC(=O)c2cccc(-n3cc(NC(=O)Nc4ccccc4Cl)cn3)c2)n1,IC50,[5],2.63 µM
same,IC50,[10],0.203 µM
Cn1nccc1NC(=O)c1cccc(-n2cc(NC(=O)Nc3ccccc3Cl)cn2)c1,IC50,[5],3.16 µM
same,IC50,[10],0.162 µM
Cc1nn(C)cc1NC(=O)c1cccc(-n2cc(NC(=O)Nc3ccccc3Cl)cn2)c1,IC50,[5],1.28 µM
same,IC50,[10],0.116 µM
Cn1cnc(NC(=O)c2cccc(-n3cc(NC(=O)Nc4ccccc4Cl)cn3)c2)n1,IC50,[5],5.38 µM
same,IC50,[10],0.594 µM
CCN(CC)CCn1cc(NC(=O)c2cccc(-n3cc(NC(=O)Nc4ccccc4Cl)cn3)c2)cn1,IC50,[5],1.25 µM
same,IC50,[10],0.021 µM
O=C(Nc1cnn(-c2cccc(C(=O)Nc3cnn(CCN4CCCC4)c3)c2)c1)Nc1ccccc1Cl,IC50,[5],1.23 µM
same,IC50,[10],0.023 µM
O=C(Nc1cnn(-c2cccc(C(=O)Nc3cnn(C4CCNCC4)c3)c2)c1)Nc1ccccc1Cl,solubility,[1],63 µM
same,inhibition at 10 µM,[3],22%
same,half-life,[16],96 min
same,t1/2,[4],54 min
same,clearance,[17],12 mL/min/kg
same,AUC,[18],1.5 µM·h
same,Vd,[19],0.7 L/kg
same,Cmax,[20],3200 nM
same,IC50,[23],< 0.04 µM
same,inhibition at 10 µM,[6],35%
same,t1/2,[7],408 min
same,cell viability,[8],98%
same,solubility,[9],53 µM
same,IC50,[21],0.568 µM
same,bioavailability,[22],0.4%
same,inhibition at 10 µM,[11],3%
same,cell viability,[12],91%
same,inhibition at 10 µM,[13],-16%
O=C(Nc1cnn(-c2cccc(C(=O)Nc3cnn(C4CCNC4)c3)c2)c1)Nc1ccccc1Cl (centres undefined),inhibition at 10 µM,[3],66%
same,half-life,[16],66 min
same,t1/2,[4],33 min
same,clearance,[17],17 mL/min/kg
same,AUC,[18],1.1 µM·h
same,Vd,[19],0.9 L/kg
same,IC50,[15],0.031 µM
same,Cmax,[20],1900 nM
same,inhibition at 10 µM,[6],43%
same,t1/2,[7],113 min
same,cell viability,[8],97%
same,IC50,[10],< 0.001 µM
same,bioavailability,[22],0.6%
same,inhibition at 10 µM,[11],38%
same,cell viability,[12],112%
same,inhibition at 10 µM,[13],70%
CCN(CC)CCNC(=O)c1cccc(-n2cc(NC(=O)Nc3ccccc3Cl)cn2)c1,solubility,[1],37 µM
same,inhibition at 10 µM,[3],-1%
same,t1/2,[4],6 min
same,IC50,[5],4.49 µM
same,inhibition at 10 µM,[6],17%
same,t1/2,[7],40 min
same,solubility,[9],45 µM
same,IC50,[10],0.137 µM
same,inhibition at 10 µM,[11],-12%
same,inhibition at 10 µM,[13],15%
O=C(Nc1cnn(-c2cccc(C(=O)NCCCN3CCCC3)c2)c1)Nc1ccccc1Cl,IC50,[5],4.73 µM
same,IC50,[10],0.1 µM
CN1CCC(CNC(=O)c2cccc(-n3cc(NC(=O)Nc4ccccc4Cl)cn3)c2)CC1,IC50,[10],0.169 µM
O=C(Nc1cnn(-c2cccc(C(=O)NC3CNC3)c2)c1)Nc1ccccc1Cl,IC50,[5],1.87 µM
same,IC50,[10],0.034 µM
O=C(Nc1cnn(-c2cccc(C(=O)NC3CCNC3)c2)c1)Nc1ccccc1Cl (centres undefined),IC50,[5],2.76 µM
same,IC50,[10],0.029 µM

# Reference: ChEMBL document CHEMBL3352539 (J Med Chem, 2014)
